Assay results as given in patent publication US9850283B2, “Macrocyclic inhibitors of the PD-1/PD-L1 and CD80(B7-1)/PD-L1 protein/protein interactions” (BRISTOL-MYERS SQUIBB COMPANY, priority 2013, dated 2017).
Like-named read-outs stand apart in the source and are kept apart here. Positions of bridges follow the written chain, without caps; N, C: chain ends. Non-standard residues stand in square brackets, D forms with d. Residues, ends and D or L forms follow the SMILES beside them. Phe(3,4-F2) = N[C@@H](Cc1ccc(F)c(F)c1)C(=O)O; Phe(4-CH2NH2) = NCc1ccc(C[C@H](N)C(=O)O)cc1; Phe(3-Cl) = N[C@@H](Cc1cccc(Cl)c1)C(=O)O; Phe(2-Cl) = N[C@@H](Cc1ccccc1Cl)C(=O)O; Phe(3-F) = N[C@@H](Cc1cccc(F)c1)C(=O)O; Phe(3-Me) = Cc1cccc(C[C@H](N)C(=O)O)c1; Phe(4-F) = N[C@@H](Cc1ccc(F)cc1)C(=O)O; Phe(4-Me) = Cc1ccc(C[C@H](N)C(=O)O)cc1; Phe(2-Me) = Cc1ccccc1C[C@H](N)C(=O)O; Bta = N[C@@H](Cc1csc2ccccc12)C(=O)O; NMeF = CN[C@@H](Cc1ccccc1)C(=O)O; NMeNle = CCCC[C@H](NC)C(=O)O; Sar = CNCC(=O)O

How the values were obtained:
[1] = target: T1, Human PD-L1/PD-1 (Homo sapiens, UniProt Q9NZQ7); assay: HTRF PD-1-Ig/PD-L1-His binding assay (human PD-L1)
T1 construct: made in house; host or cells: HEK293T
T1 sequence (Q9NZQ7 with tags, fused parts or gaps): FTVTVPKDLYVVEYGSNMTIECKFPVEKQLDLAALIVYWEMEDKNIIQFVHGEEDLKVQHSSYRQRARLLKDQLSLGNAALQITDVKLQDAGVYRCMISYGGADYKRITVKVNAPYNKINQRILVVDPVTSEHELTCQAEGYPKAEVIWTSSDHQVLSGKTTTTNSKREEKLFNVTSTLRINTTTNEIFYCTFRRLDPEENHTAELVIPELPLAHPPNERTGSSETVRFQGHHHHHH
Outline: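 Soluble Fc-fused PD-1 and His-tagged PD-L1 (truncated before the transmembrane region) were combined in dPBS with 0.1% (w/v) BSA and 0.05% (v/v) Tween-20. Binding was read by HTRF using europium cryptate anti-Ig antibody (1 nM final) and APC anti-His antibody (20 nM final).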

[2] = target: T2, LK35.2-hPD-L1 cells / PE-labeled PD-1-Ig (Homo sapiens, UniProt Q9NZQ7); assay: LK35.2-hPD-L1 cell binding high-content screening assay; assay type: cell-based; details: cell line of CBA not given (LK35.2-hPD-L1 or 293T-hPD-L1)
T2 construct: expressed in transfected cells; host or cells: LK35.2 mouse B cell line
T2 sequence (Q9NZQ7 19-290): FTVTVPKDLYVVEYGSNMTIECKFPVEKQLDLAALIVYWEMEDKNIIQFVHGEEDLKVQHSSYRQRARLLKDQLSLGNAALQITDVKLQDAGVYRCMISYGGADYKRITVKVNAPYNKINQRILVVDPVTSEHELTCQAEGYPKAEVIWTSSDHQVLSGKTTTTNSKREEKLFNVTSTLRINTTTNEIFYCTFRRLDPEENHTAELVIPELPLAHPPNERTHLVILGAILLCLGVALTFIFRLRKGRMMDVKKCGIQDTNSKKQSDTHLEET
Outline: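 Compound effect on PD-1/PD-L1 binding is measured by imaging cell-associated phycoerythrin signal. Human PD-1-Ig (PE on Ig tag, 1 nM final) is applied with compound to a murine B cell line overexpressing human PD-L1 for 1 h at 37 °C in serum-containing RPMI.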

[3] = cluster symbol, read-out: HTRF IC50 cluster
[4] = cluster symbol, read-out: CBA IC50 cluster

IC50 [1, 3] | IC50 [2, 4] | IC50 ([1]; read-out: HTRF IC50 value) | IC50 ([2]; read-out: CBA IC50 value) | Structure (SMILES)
6.76 to 30.3 nM | 0.158 to 4.71 nM |  |  | CCCC[C@H]1C(=O)N(C)CC(=O)N[C@@H](CC(=O)O)C(=O)N[C@@H](C(C)C)C(=O)N(C)[C@@H](Cc2ccccc2)C(=O)N[C@@H](Cc2ccc(CN)cc2)C(=O)N(C)CC(=O)N[C@@H](Cc2csc3ccccc23)C(=O)N[C@@H](Cc2ccc(O)cc2)C(=O)N[C@@H](CC(C)C)C(=O)N[C@H](C(=O)NCC(N)=O)CSCC(=O)N[C@@H](Cc2cccc(F)c2)C(=O)N(C)[C@@H](Cc2ccccc2)C(=O)N1C [Example 3121] ({CH2CO}-[Phe(3-F)][NMeF][NMeNle][Sar]DV[NMeF][Phe(4-CH2NH2)][Sar][Bta]YLCG-NH2; thioether N-13)
6.76 to 30.3 nM | 4.78 to 72.9 nM |  |  | CCCC[C@H]1C(=O)N(C)CC(=O)N[C@@H](CC(=O)O)C(=O)N[C@@H](C(C)C)C(=O)N(C)[C@@H](Cc2ccccc2)C(=O)N[C@@H](Cc2ccc(CN)cc2)C(=O)N(C)CC(=O)N[C@@H](Cc2c[nH]c3ccccc23)C(=O)N[C@@H](Cc2ccc(O)cc2)C(=O)N[C@@H](CC(C)C)C(=O)N[C@H](C(=O)NCC(N)=O)CSCC(=O)N[C@@H](Cc2cccc(Cl)c2)C(=O)N(C)[C@@H](Cc2ccccc2)C(=O)N1C [Example 3122] ({CH2CO}-[Phe(3-Cl)][NMeF][NMeNle][Sar]DV[NMeF][Phe(4-CH2NH2)][Sar]WYLCG-NH2; thioether N-13)
6.76 to 30.3 nM | 0.158 to 4.71 nM |  |  | CCCC[C@H]1C(=O)N(C)CC(=O)N[C@@H](CC(=O)O)C(=O)N[C@@H](C(C)C)C(=O)N(C)[C@@H](Cc2ccccc2)C(=O)N[C@@H](Cc2ccc(CN)cc2)C(=O)N(C)CC(=O)N[C@@H](Cc2c[nH]c3ccccc23)C(=O)N[C@@H](Cc2ccc(O)cc2)C(=O)N[C@@H](CC(C)C)C(=O)N[C@H](C(=O)NCC(N)=O)CSCC(=O)N[C@@H](Cc2ccc(F)cc2)C(=O)N(C)[C@@H](Cc2ccccc2)C(=O)N1C [Example 3123] ({CH2CO}-[Phe(4-F)][NMeF][NMeNle][Sar]DV[NMeF][Phe(4-CH2NH2)][Sar]WYLCG-NH2; thioether N-13)
6.76 to 30.3 nM | 0.158 to 4.71 nM |  |  | CCCC[C@H]1C(=O)N(C)CC(=O)N[C@@H](CC(=O)O)C(=O)N[C@@H](C(C)C)C(=O)N(C)[C@@H](Cc2ccccc2)C(=O)N[C@@H](Cc2ccc(CN)cc2)C(=O)N(C)CC(=O)N[C@@H](Cc2c[nH]c3ccccc23)C(=O)N[C@@H](Cc2ccc(O)cc2)C(=O)N[C@@H](CC(C)C)C(=O)N[C@H](C(=O)NCC(N)=O)CSCC(=O)N[C@@H](Cc2cccc(F)c2)C(=O)N(C)[C@@H](Cc2ccccc2)C(=O)N1C [Example 3124] ({CH2CO}-[Phe(3-F)][NMeF][NMeNle][Sar]DV[NMeF][Phe(4-CH2NH2)][Sar]WYLCG-NH2; thioether N-13)
6.76 to 30.3 nM | 0.158 to 4.71 nM |  |  | CCCC[C@H]1C(=O)N(C)CC(=O)N[C@@H](CC(=O)O)C(=O)N[C@@H](C(C)C)C(=O)N(C)[C@@H](Cc2ccccc2)C(=O)N[C@@H](Cc2ccc(O)cc2)C(=O)N(C)CC(=O)N[C@@H](Cc2c[nH]c3ccccc23)C(=O)N[C@@H](Cc2ccc(O)cc2)C(=O)N[C@@H](CC(C)C)C(=O)N[C@H](C(=O)NCC(N)=O)CSCC(=O)N[C@@H](Cc2cccc(F)c2)C(=O)N(C)[C@@H](Cc2ccccc2)C(=O)N1C [Example 3125] ({CH2CO}-[Phe(3-F)][NMeF][NMeNle][Sar]DV[NMeF]Y[Sar]WYLCG-NH2; thioether N-13)
6.76 to 30.3 nM | 0.158 to 4.71 nM |  |  | CCCC[C@H]1C(=O)N(C)CC(=O)N[C@@H](CC(=O)O)C(=O)N[C@@H](C(C)C)C(=O)N(C)[C@@H](Cc2ccccc2)C(=O)N[C@@H](Cc2ccc(O)cc2)C(=O)N(C)CC(=O)N[C@@H](Cc2c[nH]c3ccccc23)C(=O)N[C@@H](Cc2ccc(O)cc2)C(=O)N[C@@H](CC(C)C)C(=O)N[C@H](C(=O)NCC(N)=O)CSCC(=O)N[C@@H](Cc2ccc(F)c(F)c2)C(=O)N(C)[C@@H](Cc2ccccc2)C(=O)N1C [Example 3130] ({CH2CO}-[Phe(3,4-F2)][NMeF][NMeNle][Sar]DV[NMeF]Y[Sar]WYLCG-NH2; thioether N-13)
> 30.5 nM | > 74.3 nM |  |  | CCCC[C@H]1C(=O)N(C)CC(=O)N[C@@H](CC(=O)O)C(=O)N[C@@H](C(C)C)C(=O)N[C@@H](Cc2cccc(Cl)c2)C(=O)N[C@@H](Cc2ccc(O)cc2)C(=O)N(C)CC(=O)N[C@@H](Cc2c[nH]c3ccccc23)C(=O)N[C@@H](Cc2ccc(O)cc2)C(=O)N[C@@H](CC(C)C)C(=O)N[C@H](C(=O)NCC(N)=O)CSCC(=O)N[C@@H](Cc2ccccc2)C(=O)N(C)[C@@H](Cc2ccccc2)C(=O)N1C [Example 3131] ({CH2CO}-F[NMeF][NMeNle][Sar]DV[Phe(3-Cl)]Y[Sar]WYLCG-NH2; thioether N-13)
 |  | 2230 nM | 3780 nM | CCCC[C@H]1C(=O)N(C)CC(=O)N[C@@H](CC(=O)O)C(=O)N[C@@H](C(C)C)C(=O)N[C@@H](Cc2ccccc2Cl)C(=O)N[C@@H](Cc2ccc(O)cc2)C(=O)N(C)CC(=O)N[C@@H](Cc2c[nH]c3ccccc23)C(=O)N[C@@H](Cc2ccc(O)cc2)C(=O)N[C@@H](CC(C)C)C(=O)N[C@H](C(=O)NCC(N)=O)CSCC(=O)N[C@@H](Cc2ccccc2)C(=O)N(C)[C@@H](Cc2ccccc2)C(=O)N1C [Example 3132] ({CH2CO}-F[NMeF][NMeNle][Sar]DV[Phe(2-Cl)]Y[Sar]WYLCG-NH2; thioether N-13)
> 30.5 nM | > 74.3 nM |  |  | CCCC[C@H]1C(=O)N(C)CC(=O)N[C@@H](CC(=O)O)C(=O)N[C@@H](C(C)C)C(=O)N[C@@H](Cc2ccccc2C)C(=O)N[C@@H](Cc2ccc(O)cc2)C(=O)N(C)CC(=O)N[C@@H](Cc2c[nH]c3ccccc23)C(=O)N[C@@H](Cc2ccc(O)cc2)C(=O)N[C@@H](CC(C)C)C(=O)N[C@H](C(=O)NCC(N)=O)CSCC(=O)N[C@@H](Cc2ccccc2)C(=O)N(C)[C@@H](Cc2ccccc2)C(=O)N1C [Example 3133] ({CH2CO}-F[NMeF][NMeNle][Sar]DV[Phe(2-Me)]Y[Sar]WYLCG-NH2; thioether N-13)
> 30.5 nM | > 74.3 nM |  |  | CCCC[C@H]1C(=O)N(C)CC(=O)N[C@@H](CC(=O)O)C(=O)N[C@@H](C(C)C)C(=O)N[C@@H](Cc2cccc(C)c2)C(=O)N[C@@H](Cc2ccc(O)cc2)C(=O)N(C)CC(=O)N[C@@H](Cc2c[nH]c3ccccc23)C(=O)N[C@@H](Cc2ccc(O)cc2)C(=O)N[C@@H](CC(C)C)C(=O)N[C@H](C(=O)NCC(N)=O)CSCC(=O)N[C@@H](Cc2ccccc2)C(=O)N(C)[C@@H](Cc2ccccc2)C(=O)N1C [Example 3134] ({CH2CO}-F[NMeF][NMeNle][Sar]DV[Phe(3-Me)]Y[Sar]WYLCG-NH2; thioether N-13)
> 30.5 nM | > 74.3 nM |  |  | CCCC[C@H]1C(=O)N(C)CC(=O)N[C@@H](CC(=O)O)C(=O)N[C@@H](C(C)C)C(=O)N[C@@H](Cc2ccc(C)cc2)C(=O)N[C@@H](Cc2ccc(O)cc2)C(=O)N(C)CC(=O)N[C@@H](Cc2c[nH]c3ccccc23)C(=O)N[C@@H](Cc2ccc(O)cc2)C(=O)N[C@@H](CC(C)C)C(=O)N[C@H](C(=O)NCC(N)=O)CSCC(=O)N[C@@H](Cc2ccccc2)C(=O)N(C)[C@@H](Cc2ccccc2)C(=O)N1C [Example 3135] ({CH2CO}-F[NMeF][NMeNle][Sar]DV[Phe(4-Me)]Y[Sar]WYLCG-NH2; thioether N-13)
